Data from PubChem BioAssay AID256 (DTP/NCI, 2004).
Toxic doses and inconclusive results are not listed. The calls were made as follows: active = survival T/C of 150% or more; inactive = T/C below 125% in these data.

System: CD2F1 mice, L1210 leukemia ip, survival T/C
Assay: NCI In Vivo Anticancer Drug Screen. Data for tumor model L1210 Leukemia (intraperitoneal) in CD2F1 (CDF1) mice
Settings: higher = longer survival
In short: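 Read-out first: treated-group measurement over vehicle-control measurement, expressed as a ratio. Animals bore a transplanted tumor line and were dosed with compound or vehicle.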

[1] = endpoint: mean survival time, dose: 75.0 mg/kg/injection, schedule: Q01DX001 (ip), vehicle: other
[2] = endpoint: mean survival time, dose: 100.0 mg/kg/injection, schedule: Q04DX003 (ip), vehicle: saline with Tween-80
[3] = endpoint: mean survival time, dose: 200.0 mg/kg/injection, schedule: Q01DX001 (ip), vehicle: saline with Tween-80
[4] = endpoint: mean survival time, dose: 200.0 mg/kg/injection, schedule: Q01DX009 (ip), vehicle: saline with Tween-80
[5] = endpoint: mean survival time, dose: 6.25 mg/kg/injection, schedule: Q01DX009 (ip), vehicle: saline with Tween-80
[6] = endpoint: mean survival time, dose: 12.5 mg/kg/injection, schedule: Q01DX009 (ip), vehicle: saline with Tween-80
[7] = endpoint: mean survival time, dose: 200.0 mg/kg/injection, schedule: Q01DX009 (ip), vehicle: saline
[8] = endpoint: mean survival time, dose: 200.0 mg/kg/injection, schedule: Q04DX003 (ip), vehicle: saline with Tween-80
[9] = endpoint: mean survival time, dose: 100.0 mg/kg/injection, schedule: Q01DX001 (ip), vehicle: saline
[10] = endpoint: mean survival time, dose: 200.0 mg/kg/injection, schedule: Q01DX001 (ip), vehicle: saline
[11] = endpoint: mean survival time, dose: 400.0 mg/kg/injection, schedule: Q01DX001 (ip), vehicle: saline
[12] = endpoint: mean survival time, dose: 75.0 mg/kg/injection, schedule: Q01DX001 (ip), vehicle: saline

Measured: T/C

FC(F)(F)/C([S-])=C(/[S-])C(F)(F)F.N#[O+].[Mn].[c-]1[c-][c-][cH-][c-]1
inactive: [1] 103 % of control

O=C(O)C1CC[N-]CC1.O=C(O)C1CC[N-]CC1.[Cl][Pt+2][Cl]
inactive: endpoint: mean survival time, dose: 50.0 mg/kg/injection, schedule: Q01DX001 (ip), vehicle: saline with Tween-80 110 % of control | [2] 107 % of control | [3] 110 % of control | [4] 97 % of control

O=C(CBr)Nc1cc([N+](=O)[O-])ccc1O
inactive: [5] 91 % of control | [6] 98 % of control

CCCCC(=O)Nc1ccc(Cl)cc1
inactive: endpoint: mean survival time, dose: 100.0 mg/kg/injection, schedule: Q01DX001 (ip), vehicle: saline with Tween-80 101 % of control | [3] 95 % of control | endpoint: mean survival time, dose: 400.0 mg/kg/injection, schedule: Q01DX001 (ip), vehicle: saline with Tween-80 106 % of control

C[S+](C)CC(=O)c1ccccc1
inactive: endpoint: mean survival time, dose: 50.0 mg/kg/injection, schedule: Q01DX009 (ip), vehicle: saline 97 % of control | endpoint: mean survival time, dose: 100.0 mg/kg/injection, schedule: Q01DX009 (ip), vehicle: saline 106 % of control | [7] 107 % of control

COc1ccc(Cc2nnc(Cc3ccc(OC)c(OC)c3)nn2)cc1OC
inactive: [2] 101 % of control | [8] 93 % of control

Cc1cn([C@@H]2C[C@H](CO)[C@@H](O)C2)c(=O)[nH]c1=O
inactive: endpoint: mean survival time, dose: 133.0 mg/kg/injection, schedule: Q01DX009 (ip), vehicle: saline 118 % of control | [7] 121 % of control | endpoint: mean survival time, dose: 450.0 mg/kg/injection, schedule: Q01DX009 (ip), vehicle: saline 106 % of control

CCOC(=O)CCCCCSc1n[nH]c(=O)[nH]c1=O
inactive: endpoint: mean survival time, dose: 12.5 mg/kg/injection, schedule: Q01DX005 (ip), vehicle: distilled water + Tween-80 102 % of control | endpoint: mean survival time, dose: 25.0 mg/kg/injection, schedule: Q01DX005 (ip), vehicle: distilled water + Tween-80 103 % of control | endpoint: mean survival time, dose: 50.0 mg/kg/injection, schedule: Q01DX005 (ip), vehicle: distilled water + Tween-80 92 % of control | endpoint: mean survival time, dose: 100.0 mg/kg/injection, schedule: Q01DX005 (ip), vehicle: distilled water + Tween-80 102 % of control | endpoint: mean survival time, dose: 200.0 mg/kg/injection, schedule: Q01DX005 (ip), vehicle: distilled water + Tween-80 102 % of control

CN(C)/N=N\c1c(C(N)=O)ncn1C1OC(CO)C(O)C1O (centres undefined)
inactive: endpoint: mean survival time, dose: 100.0 mg/kg/injection, schedule: Q01DX005 (ip), vehicle: saline 104 % of control | endpoint: mean survival time, dose: 200.0 mg/kg/injection, schedule: Q01DX005 (ip), vehicle: saline 95 % of control

O=C(Nc1cc(Cl)c(I)cc1Cl)C(F)(F)F
inactive: [9] 102 % of control | [10] 111 % of control | [11] 90 % of control

CNNCc1c[nH]c(=O)[nH]c1=O
inactive: endpoint: mean survival time, dose: 25.0 mg/kg/injection, schedule: Q01DX009 (ip), vehicle: water 110 % of control | endpoint: mean survival time, dose: 50.0 mg/kg/injection, schedule: Q01DX009 (ip), vehicle: water 102 % of control | endpoint: mean survival time, dose: 100.0 mg/kg/injection, schedule: Q01DX009 (ip), vehicle: water 102 % of control | endpoint: mean survival time, dose: 200.0 mg/kg/injection, schedule: Q01DX009 (ip), vehicle: water 93 % of control | endpoint: mean survival time, dose: 400.0 mg/kg/injection, schedule: Q01DX009 (ip), vehicle: water 100 % of control

CN(C)P1(=O)NCC(C(C)(C)C)CO1 (centres undefined)
inactive: endpoint: mean survival time, dose: 15.63 mg/kg/injection, schedule: Q01DX001 (ip), vehicle: water 97 % of control | endpoint: mean survival time, dose: 31.25 mg/kg/injection, schedule: Q01DX001 (ip), vehicle: water 97 % of control | endpoint: mean survival time, dose: 62.5 mg/kg/injection, schedule: Q01DX001 (ip), vehicle: water 97 % of control | endpoint: mean survival time, dose: 125.0 mg/kg/injection, schedule: Q01DX001 (ip), vehicle: water 97 % of control | endpoint: mean survival time, dose: 250.0 mg/kg/injection, schedule: Q01DX001 (ip), vehicle: water 101 % of control

CNC1CCCCCC1
inactive: [12] 101 % of control | endpoint: mean survival time, dose: 150.0 mg/kg/injection, schedule: Q01DX001 (ip), vehicle: saline 101 % of control

N#CC(/C=C/c1ccccc1)Nc1ccccc1 (centres undefined)
inactive: endpoint: mean survival time, dose: 100.0 mg/kg/injection, schedule: Q01DX009 (ip), vehicle: saline with Tween-80 89 % of control | endpoint: mean survival time, dose: 100.0 mg/kg/injection, schedule: Q04DX003 (ip), vehicle: saline sonified 100 % of control | [4] 90 % of control | endpoint: mean survival time, dose: 200.0 mg/kg/injection, schedule: Q04DX003 (ip), vehicle: saline sonified 97 % of control | endpoint: mean survival time, dose: 400.0 mg/kg/injection, schedule: Q01DX009 (ip), vehicle: saline with Tween-80 89 % of control | endpoint: mean survival time, dose: 400.0 mg/kg/injection, schedule: Q04DX003 (ip), vehicle: saline sonified 96 % of control

C[C@]12C=CC(=O)C=C1CC[C@@H]1[C@@H]2CC[C@]2(C)OC(=O)CC[C@@H]12
inactive: endpoint: median survival time, dose: 125.0 mg/kg/injection, schedule: Q01DX009 (sc), vehicle: steriod suspending solution 97 % of control | endpoint: median survival time, dose: 125.0 mg/kg/injection, schedule: Q## X009 (sc), vehicle: steriod suspending solution 97 % of control | endpoint: median survival time, dose: 250.0 mg/kg/injection, schedule: Q01DX009 (sc), vehicle: steriod suspending solution 104 % of control | endpoint: median survival time, dose: 250.0 mg/kg/injection, schedule: Q## X009 (sc), vehicle: steriod suspending solution 104 % of control | endpoint: median survival time, dose: 500.0 mg/kg/injection, schedule: Q01DX009 (sc), vehicle: steriod suspending solution 102 % of control | endpoint: median survival time, dose: 500.0 mg/kg/injection, schedule: Q## X009 (sc), vehicle: steriod suspending solution 102 % of control | endpoint: median survival time, dose: 1000.0 mg/kg/injection, schedule: Q01DX009 (sc), vehicle: steriod suspending solution 102 % of control | endpoint: median survival time, dose: 1000.0 mg/kg/injection, schedule: Q## X009 (sc), vehicle: steriod suspending solution 102 % of control

Cc1ccc(S(=O)(=O)OCC2CC3CCC2C3)cc1 (centres undefined)
inactive: endpoint: mean survival time, dose: 100.0 mg/kg/injection, schedule: Q01DX009 (ip), vehicle: other 102 % of control | endpoint: mean survival time, dose: 200.0 mg/kg/injection, schedule: Q01DX009 (ip), vehicle: other 102 % of control | endpoint: mean survival time, dose: 400.0 mg/kg/injection, schedule: Q01DX009 (ip), vehicle: other 93 % of control

COC1OC(COC(=O)c2ccccc2)C2OC(=O)OC12 (centres undefined)
inactive: [2] 93 % of control | [8] 90 % of control | endpoint: mean survival time, dose: 400.0 mg/kg/injection, schedule: Q04DX003 (ip), vehicle: saline with Tween-80 102 % of control

O=C([O-])[O-].O=S(=O)(O)O.[Co+3].[NH2-].[NH2-].[NH2-].[NH2-]
inactive: endpoint: mean survival time, dose: 100.0 mg/kg/injection, schedule: Q04DX002 (ip), vehicle: saline with Tween-80 100 % of control | endpoint: mean survival time, dose: 400.0 mg/kg/injection, schedule: Q04DX002 (ip), vehicle: saline with Tween-80 107 % of control

O=C(CN1CCCCC1)NC(=O)NC1=C(N2CCCCC2)C(=O)c2ccccc2C1=O
inactive: endpoint: mean survival time, dose: 100.0 mg/kg/injection, schedule: Q01DX001 (ip), vehicle: other 97 % of control | endpoint: mean survival time, dose: 200.0 mg/kg/injection, schedule: Q01DX001 (ip), vehicle: other 101 % of control | endpoint: mean survival time, dose: 400.0 mg/kg/injection, schedule: Q01DX001 (ip), vehicle: other 95 % of control

COC(=O)Nc1cn2cc(C(=O)c3cccs3)ccc2n1
inactive: endpoint: median survival time, dose: 6.25 mg/kg/injection, schedule: Q01DX009 (ip), vehicle: Klucel (hydroxypropylcellulose) (HPC) 104 % of control | endpoint: median survival time, dose: 12.5 mg/kg/injection, schedule: Q01DX009 (ip), vehicle: Klucel (hydroxypropylcellulose) (HPC) 112 % of control | endpoint: median survival time, dose: 25.0 mg/kg/injection, schedule: Q01DX009 (ip), vehicle: Klucel (hydroxypropylcellulose) (HPC) 119 % of control | endpoint: median survival time, dose: 50.0 mg/kg/injection, schedule: Q01DX009 (ip), vehicle: Klucel (hydroxypropylcellulose) (HPC) 124 % of control

COc1ccc(CNCCO)cc1O
inactive: [9] 101 % of control | [10] 98 % of control | [11] 98 % of control

O=[N+]([O-])c1ccc(SSC(Cl)(Cl)Cl)cc1
inactive: [5] 101 % of control | [6] 101 % of control | endpoint: mean survival time, dose: 25.0 mg/kg/injection, schedule: Q01DX009 (ip), vehicle: saline with Tween-80 101 % of control | endpoint: mean survival time, dose: 50.0 mg/kg/injection, schedule: Q01DX009 (ip), vehicle: saline with Tween-80 100 % of control

O=NC1C(=O)C2CC1CC2C(=O)OC(=O)C1CC2CC1C(=O)C2N=O (centres undefined)
inactive: [1] 108 % of control | endpoint: mean survival time, dose: 150.0 mg/kg/injection, schedule: Q01DX001 (ip), vehicle: other 108 % of control

CN1CCCC(OC(=O)C(c2ccccc2)C2(O)CCCC2)C1 (centres undefined)
inactive: [12] 98 % of control

NNC(=S)S
inactive: endpoint: mean survival time, dose: 5.0 mg/kg/injection, schedule: Q01DX001 (ip), vehicle: saline 96 % of control | endpoint: mean survival time, dose: 10.0 mg/kg/injection, schedule: Q01DX001 (ip), vehicle: saline 98 % of control

CCOC(=O)CC1NCCS1 (centres undefined)
inactive: [9] 97 % of control | [10] 96 % of control | [11] 94 % of control
